{"source": "patent US12209143B2", "about": "“Versatile peptide and protein macrocyclization and multimerization with diels-alder cycloadditions” (The University of Chicago, priority 2019, dated 2025)", "key": {"trypsin": {"molecular_target": "T1, trypsin (Sus scrofa, UniProt P00761)", "T1 construct": "purchased Thermo Pierce", "T1 sequence (P00761 9-231)": "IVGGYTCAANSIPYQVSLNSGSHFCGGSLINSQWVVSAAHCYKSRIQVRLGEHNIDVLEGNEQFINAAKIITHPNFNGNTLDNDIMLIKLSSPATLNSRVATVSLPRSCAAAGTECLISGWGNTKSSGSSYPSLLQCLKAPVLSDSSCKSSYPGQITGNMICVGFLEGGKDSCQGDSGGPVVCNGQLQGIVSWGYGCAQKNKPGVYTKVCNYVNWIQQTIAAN", "assay": "In vitro trypsin resistance assay", "type": "in vitro ADME", "conditions": "10 μg/mL trypsin, 37° C.", "procedure": "(§1) DAC protease stability assays. DAC peptide protease degradation kinetics were determined with Thermo Pierce™ MS-Grade Trypsin or Chymotrypsin Protease in PBS or TBS with 5 mM DTT and 2 mM CaCl2. Protease (1 eq) was added to buffer for a final assay concentration of 10 μg/mL trypsin or 0.5 μg/mL chymotrypsin. Each respective reaction mixture was then added to either 1 wt and 1a (2000 eq) or 4 wt and 4a (10,000 eq). Samples were then incubated at 37° C., 1,000 rpm. 5 min, 10 min, 30 min, 2 hr, and 4 hr time points were quenched in an equal volume of 2% TFA/H2O on ice. After 5 min, samples were centrifuged for 2 min at 17,000 rcf to precipitate quenched trypsin. Supernatant solutions were then analyzed and intact peptide quantified by LC-MS or Q-TOF."}, "ERα": {"molecular_target": "T2, ERα (Homo sapiens, UniProt P03372)", "T2 construct": "Wildtype and Y537S 6×His-TEV-ERα (residues 300-550) in pET21a(+) was expressed in E. coli BL21(DE3); 6×His-TEV (N, cleaved yes); made in house; host or cells: E. coli BL21(DE3)", "T2 sequence (P03372 300-550)": "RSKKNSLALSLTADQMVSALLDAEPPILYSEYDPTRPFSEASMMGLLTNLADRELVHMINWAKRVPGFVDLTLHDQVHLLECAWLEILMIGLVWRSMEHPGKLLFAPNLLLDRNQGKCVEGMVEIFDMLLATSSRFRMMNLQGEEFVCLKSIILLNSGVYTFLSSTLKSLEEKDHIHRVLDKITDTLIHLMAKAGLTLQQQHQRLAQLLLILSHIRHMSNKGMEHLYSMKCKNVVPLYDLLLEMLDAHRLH", "assay": "Competitive fluorescence polarization (FP) binding assay of DAC-SRC2 peptides", "procedure": "Competitive fluorescence polarization (FP) assay. […] Plates were incubated at 4° C. for 1 hr, imaged using standard FP assay settings at 30° C., and data analyzed as previously described."}, "chymotrypsin": {"molecular_target": "T3, chymotrypsin (Bos taurus, UniProt P00766)", "T3 construct": "purchased Thermo Pierce", "assay": "In vitro chymotrypsin resistance assay", "type": "in vitro ADME", "conditions": "0.5 μg/mL chymotrypsin, 37° C.", "procedure": "as §1"}}, "note": "pIC50, pKi: −log10 of the molar value. Where two headings read alike, the source gives them in different places.", "data": [{"compound": "CC(=O)N[C@H]1CSCC2C=CC(C)C3C(=O)N(CC(=O)NCCCC[C@@H](C(N)=O)NC(=O)[C@H](CC(=O)O)NC(=O)CNC(=O)[C@H](CCCNC(=N)N)NC1=O)C(=O)C23", "note": "(some centres unmarked) [1a, CHexRGDKMal]", "values": [{"measurement": "degradation by trypsin", "setting": "trypsin", "result": "extended half-life"}]}, {"compound": "CC[C@H](C)[C@H](NC(=O)[C@H](CCCCN)NC(=O)[C@H](Cc1c[nH]cn1)NC(C)=O)C(=O)N[C@@H](CC(C)C)C(=O)N[C@@H](Cc1c[nH]cn1)C(=O)N[C@H]1CCCCNC(=O)CN2C(=O)C3C4C=CC(C[C@@H](C(=O)N[C@@H](CO)C(N)=O)NC(=O)[C@H](CCC(N)=O)NC(=O)[C@H](CC(C)C)NC(=O)[C@H](CC(C)C)NC1=O)(O4)C3C2=O", "note": "(some centres unmarked) [7a]", "values": [{"measurement": "pKi", "setting": "ERα; calculated from competitive FP assay, ERα, value (± s.e.m.)", "result": 6.68}, {"measurement": "pIC50", "setting": "ERα; competing a fluorescein-linked SRC2 peptide off of ERα, read-out: IC50 (approximate)", "result": "~6.30"}, {"measurement": "pIC50", "setting": "ERα; competitive FP, wildtype ERα, fluorescein-labeled SRC peptide tracer, value (± s.e.m.), read-out: IC50", "result": 6.32}]}, {"compound": "Ac-CAVPAVYK-NH2 [4 wt]", "values": [{"measurement": "degradation by chymotrypsin", "setting": "chymotrypsin", "result": "degraded more rapidly than 4a"}]}]}
